# Results as given in patent US12636274B2, “Pharmaceutical compositions and methods for systemic treatment of solid tumors” (7 HILLS INTERESTS LLC, priority 2014, dated 2026).
# Legend:
# α2b1/Collagen I = α2b1/Collagen I (Homo sapiens, UniProt P05556+P17301); test: Integrin activation, adhesion α2b1/Collagen I; type: cell-based; parameters: key: Not Active: Not active: ≤2 fold increase in adhesion; settings: 50% serum; n = 3
# Description: (§1) Activating all integrins is necessary for firm endothelial cell adhesion for extravasation.
# α1b1/Collagen IV = α1b1/Collagen IV (Homo sapiens, UniProt P05556+P56199); test: Integrin activation, adhesion α1b1/Collagen IV; type: cell-based; parameters: key: Not Active: Not active: ≤2 fold increase in adhesion; settings: 50% serum; n = 3
# Description: as §1
# VCAM-1 = test: Cell migration across VCAM-1 membrane toward SDF-1; type: cell-based; settings: FIG. 5; different concentrations; SDF-1 in bottom part
# Method: Referring now to FIG. 5, an apparatus for testing VCAM-1 and ICAM-1 cell migration, where the cells are initially placed in the top part of the apparatus including a member including VCAM-1 or ICAM-1, with the bottom part of the apparatus initially including SDF-1. Cell migration is then measured from top part to the bottom part for different concentration of CDPD 1, a compound of Formula (I) of VCAM-1 and ICAM-1 impregnated membrane.
# LFA-1/ICAM-1 = LFA-1/ICAM-1 (Homo sapiens, UniProt P05107+P20701); test: LFA-1 dependent cell adhesion to ICAM-1; type: cell-based; settings: FIG. 4; ICAM-1 and Cmpd 1 versus BSA, ICAM-1 alone, Ig and anti-integrin antibodies
# Chain of LFA-1/ICAM-1 (P20701 26-1170): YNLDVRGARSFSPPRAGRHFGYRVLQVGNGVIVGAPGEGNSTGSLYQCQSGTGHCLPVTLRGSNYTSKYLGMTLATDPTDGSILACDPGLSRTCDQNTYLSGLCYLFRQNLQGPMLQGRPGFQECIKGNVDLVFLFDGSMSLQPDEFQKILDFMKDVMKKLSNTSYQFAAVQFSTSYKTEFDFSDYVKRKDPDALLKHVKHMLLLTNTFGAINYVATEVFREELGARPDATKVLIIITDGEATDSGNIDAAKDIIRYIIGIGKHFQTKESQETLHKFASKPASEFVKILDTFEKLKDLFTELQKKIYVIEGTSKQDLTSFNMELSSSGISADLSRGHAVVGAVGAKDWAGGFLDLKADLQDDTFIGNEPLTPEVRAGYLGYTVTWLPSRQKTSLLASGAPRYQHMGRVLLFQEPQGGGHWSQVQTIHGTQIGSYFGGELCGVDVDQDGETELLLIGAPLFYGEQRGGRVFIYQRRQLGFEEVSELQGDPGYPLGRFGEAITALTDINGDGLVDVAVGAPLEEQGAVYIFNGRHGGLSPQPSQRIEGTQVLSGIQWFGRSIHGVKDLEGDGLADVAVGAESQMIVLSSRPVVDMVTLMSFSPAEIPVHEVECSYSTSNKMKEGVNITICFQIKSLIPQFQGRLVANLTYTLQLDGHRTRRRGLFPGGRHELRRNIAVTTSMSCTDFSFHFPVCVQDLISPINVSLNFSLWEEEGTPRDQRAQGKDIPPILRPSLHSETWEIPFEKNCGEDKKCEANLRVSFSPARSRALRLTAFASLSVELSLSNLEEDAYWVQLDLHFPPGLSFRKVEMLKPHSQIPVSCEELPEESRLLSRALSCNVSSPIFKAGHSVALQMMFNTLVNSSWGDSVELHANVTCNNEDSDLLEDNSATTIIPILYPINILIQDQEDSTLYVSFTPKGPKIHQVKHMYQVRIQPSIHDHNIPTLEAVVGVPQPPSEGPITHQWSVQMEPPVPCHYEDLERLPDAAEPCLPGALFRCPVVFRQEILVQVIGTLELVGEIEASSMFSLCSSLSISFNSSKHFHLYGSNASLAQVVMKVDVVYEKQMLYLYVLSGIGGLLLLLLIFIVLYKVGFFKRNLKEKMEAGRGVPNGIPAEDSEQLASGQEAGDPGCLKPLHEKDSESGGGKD
# Chain of LFA-1/ICAM-1 (P05107 23-769): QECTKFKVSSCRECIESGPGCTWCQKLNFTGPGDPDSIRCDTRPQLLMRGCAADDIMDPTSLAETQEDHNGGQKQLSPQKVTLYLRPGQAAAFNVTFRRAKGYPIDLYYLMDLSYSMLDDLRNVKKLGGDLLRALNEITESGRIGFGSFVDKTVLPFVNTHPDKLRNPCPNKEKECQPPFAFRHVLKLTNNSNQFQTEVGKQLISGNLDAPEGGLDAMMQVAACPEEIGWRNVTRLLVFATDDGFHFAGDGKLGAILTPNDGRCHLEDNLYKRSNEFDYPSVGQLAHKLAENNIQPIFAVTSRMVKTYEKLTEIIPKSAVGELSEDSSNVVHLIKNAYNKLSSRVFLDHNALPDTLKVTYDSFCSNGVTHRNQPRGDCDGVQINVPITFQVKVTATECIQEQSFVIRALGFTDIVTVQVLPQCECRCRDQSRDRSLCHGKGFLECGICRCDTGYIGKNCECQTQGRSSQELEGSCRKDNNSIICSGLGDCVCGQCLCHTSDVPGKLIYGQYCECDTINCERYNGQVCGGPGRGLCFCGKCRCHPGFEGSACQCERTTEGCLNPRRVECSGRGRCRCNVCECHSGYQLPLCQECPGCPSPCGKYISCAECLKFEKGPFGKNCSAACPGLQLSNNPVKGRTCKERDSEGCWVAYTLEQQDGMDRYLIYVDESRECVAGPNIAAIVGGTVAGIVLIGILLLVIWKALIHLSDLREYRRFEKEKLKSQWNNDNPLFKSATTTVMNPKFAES
# Description: Referring now to FIG. 4, a histogram is shown of induced LFA-1 ([…]) dependent cell adhesion to ICAM-1 in the presence of BSA, ICAM-1, ICAM-1 and a compound of Formula (I) (Cmpd 1), Ig, anti-α4, anti-αL, anti-β1, and anti-β2.
# as §1
# [1] = test system: CD3+ CD8+ and CD3+ CD4+ tumor infiltrating T-cells; test: Tumor infiltrating lymphocytes (TILs) by FACS in CT26 tumors; type: in vivo, Mouse (Mus musculus)
# Method: On day 19 of treatment initiation tumors were isolated from study mice aseptically (n=5/group).
# Tumor tissue was minced devoid of dead and necrotic tissue was mechanically disaggregated aseptically in RPMI medium without proteolytic enzymes in gentleMACS C-tubes using gentleMACS Octo Dissociator under the program 37C_m_TDK_1_30m (Miltenyi Biotec). Cell suspension was enriched for single cells by filtering the disaggregated mix through 70 μm cell strainer. Cells were pelleted at 300 g for 7 min at 4° C., washed twice with fresh complete media followed by FACS buffer containing PBS w/o calcium and magnesium (pH 7.4), 2% FBS and 0.05% sodium azide. Note: Proteolytic enzymes may chew up the antigen epitopes, therefore enzymatic dissociation is not performed.
# Five million total viable cells were used as input for staining with the following fluorochrome conjugated antibodies for 30 min on ice in dark. Unbound stain was removed by washing cells in FACS buffer twice. […]
# Unstained cells were used for setting up gates and focus single cells using INSPIRE acquisition software in Amnis FlowSight flow cytometer (Amnis Corporation, Seattle, WA) with 405, 488, 642 nm excitation lasers. […]
# Before proceeding for FACS acquisition, we have recorded the total viable cell yield for each tumor sample. […] From the CD3 positive population gated out of viable 7AAD-ve population, the percentage of viable cells displaying CD3 positive signal was recorded using the statistics option in FACS software. […] Based on this information, yield per million cells was calculated and reported in results.
# In addition, tumors were allowed to grow up to day 18 with continued Compound 1 dose, that decreased tumor growth resulting in a significant inhibition p<0.01 in the q.d. group compared to p<0.0001 in BID group. […] Upon non-enzymatic dissociation, cell viability was assessed and subjected to enumeration of CD3^+, CD4^+ or CD8^+ tumor infiltrating T-cells (detailed method, refer section 11).
# [2] = Clinical symptoms in monkeys; type: in vivo
# α5β1/Fibronectin = α5β1/Fibronectin (Homo sapiens, UniProt P05556+P08648); test: Integrin activation, adhesion α5β1/Fibronectin; type: cell-based; settings: 50% serum; n = 3; read-out: Integrin Selectivity EC50 α5β1/Fibronectin
# Chain of α5β1/Fibronectin (P08648 42-894 limits assumed): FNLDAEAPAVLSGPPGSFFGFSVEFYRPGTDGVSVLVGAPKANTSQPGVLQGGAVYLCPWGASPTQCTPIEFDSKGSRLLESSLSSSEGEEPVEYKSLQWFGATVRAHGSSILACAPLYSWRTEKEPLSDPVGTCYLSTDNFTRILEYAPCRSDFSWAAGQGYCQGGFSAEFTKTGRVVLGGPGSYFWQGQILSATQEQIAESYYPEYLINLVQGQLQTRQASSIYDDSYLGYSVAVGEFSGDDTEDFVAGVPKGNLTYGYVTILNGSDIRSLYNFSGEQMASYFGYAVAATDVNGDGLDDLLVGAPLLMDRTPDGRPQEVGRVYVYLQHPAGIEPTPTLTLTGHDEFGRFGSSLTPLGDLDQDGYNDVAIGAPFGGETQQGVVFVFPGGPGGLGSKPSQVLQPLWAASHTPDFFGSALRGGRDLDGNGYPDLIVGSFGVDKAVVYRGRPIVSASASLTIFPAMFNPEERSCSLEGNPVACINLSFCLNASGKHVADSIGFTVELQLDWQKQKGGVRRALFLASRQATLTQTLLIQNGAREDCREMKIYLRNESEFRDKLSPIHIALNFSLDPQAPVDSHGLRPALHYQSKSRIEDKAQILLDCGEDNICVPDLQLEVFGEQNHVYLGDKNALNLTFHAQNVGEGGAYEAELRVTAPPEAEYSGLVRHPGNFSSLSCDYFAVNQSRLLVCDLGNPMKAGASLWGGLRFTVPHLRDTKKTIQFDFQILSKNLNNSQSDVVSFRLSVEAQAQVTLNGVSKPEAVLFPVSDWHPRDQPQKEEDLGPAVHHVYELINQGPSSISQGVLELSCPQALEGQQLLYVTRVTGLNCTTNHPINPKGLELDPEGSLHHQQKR
# Chain of α5β1/Fibronectin (P08648 895-1049 limits assumed): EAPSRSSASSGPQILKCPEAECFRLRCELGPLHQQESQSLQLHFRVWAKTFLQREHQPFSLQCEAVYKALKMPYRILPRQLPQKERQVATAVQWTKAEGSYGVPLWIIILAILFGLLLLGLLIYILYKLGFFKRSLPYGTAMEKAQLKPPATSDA
# Chain of α5β1/Fibronectin (P05556 21-798): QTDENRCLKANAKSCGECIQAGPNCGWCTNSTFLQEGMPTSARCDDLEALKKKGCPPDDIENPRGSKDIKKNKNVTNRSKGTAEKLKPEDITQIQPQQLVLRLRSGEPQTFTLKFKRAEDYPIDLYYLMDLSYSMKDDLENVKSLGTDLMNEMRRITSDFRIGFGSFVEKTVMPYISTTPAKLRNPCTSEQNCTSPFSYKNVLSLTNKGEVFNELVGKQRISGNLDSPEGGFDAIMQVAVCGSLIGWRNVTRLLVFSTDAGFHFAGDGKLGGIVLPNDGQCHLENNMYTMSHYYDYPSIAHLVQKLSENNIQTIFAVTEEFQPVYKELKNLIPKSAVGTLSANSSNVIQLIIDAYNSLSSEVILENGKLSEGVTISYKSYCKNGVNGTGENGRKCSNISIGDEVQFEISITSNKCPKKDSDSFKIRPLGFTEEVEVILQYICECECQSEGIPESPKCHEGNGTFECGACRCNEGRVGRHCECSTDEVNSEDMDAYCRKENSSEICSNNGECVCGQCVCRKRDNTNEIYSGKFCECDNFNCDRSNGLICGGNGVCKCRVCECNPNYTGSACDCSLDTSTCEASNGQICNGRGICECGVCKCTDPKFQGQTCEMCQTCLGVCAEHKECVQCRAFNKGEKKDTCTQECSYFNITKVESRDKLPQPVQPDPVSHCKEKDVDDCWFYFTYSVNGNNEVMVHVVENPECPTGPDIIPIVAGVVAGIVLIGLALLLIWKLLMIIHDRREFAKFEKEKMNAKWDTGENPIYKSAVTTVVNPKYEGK
# Description: as §1
# Chain of α2b1/Collagen I (P17301 30-1181): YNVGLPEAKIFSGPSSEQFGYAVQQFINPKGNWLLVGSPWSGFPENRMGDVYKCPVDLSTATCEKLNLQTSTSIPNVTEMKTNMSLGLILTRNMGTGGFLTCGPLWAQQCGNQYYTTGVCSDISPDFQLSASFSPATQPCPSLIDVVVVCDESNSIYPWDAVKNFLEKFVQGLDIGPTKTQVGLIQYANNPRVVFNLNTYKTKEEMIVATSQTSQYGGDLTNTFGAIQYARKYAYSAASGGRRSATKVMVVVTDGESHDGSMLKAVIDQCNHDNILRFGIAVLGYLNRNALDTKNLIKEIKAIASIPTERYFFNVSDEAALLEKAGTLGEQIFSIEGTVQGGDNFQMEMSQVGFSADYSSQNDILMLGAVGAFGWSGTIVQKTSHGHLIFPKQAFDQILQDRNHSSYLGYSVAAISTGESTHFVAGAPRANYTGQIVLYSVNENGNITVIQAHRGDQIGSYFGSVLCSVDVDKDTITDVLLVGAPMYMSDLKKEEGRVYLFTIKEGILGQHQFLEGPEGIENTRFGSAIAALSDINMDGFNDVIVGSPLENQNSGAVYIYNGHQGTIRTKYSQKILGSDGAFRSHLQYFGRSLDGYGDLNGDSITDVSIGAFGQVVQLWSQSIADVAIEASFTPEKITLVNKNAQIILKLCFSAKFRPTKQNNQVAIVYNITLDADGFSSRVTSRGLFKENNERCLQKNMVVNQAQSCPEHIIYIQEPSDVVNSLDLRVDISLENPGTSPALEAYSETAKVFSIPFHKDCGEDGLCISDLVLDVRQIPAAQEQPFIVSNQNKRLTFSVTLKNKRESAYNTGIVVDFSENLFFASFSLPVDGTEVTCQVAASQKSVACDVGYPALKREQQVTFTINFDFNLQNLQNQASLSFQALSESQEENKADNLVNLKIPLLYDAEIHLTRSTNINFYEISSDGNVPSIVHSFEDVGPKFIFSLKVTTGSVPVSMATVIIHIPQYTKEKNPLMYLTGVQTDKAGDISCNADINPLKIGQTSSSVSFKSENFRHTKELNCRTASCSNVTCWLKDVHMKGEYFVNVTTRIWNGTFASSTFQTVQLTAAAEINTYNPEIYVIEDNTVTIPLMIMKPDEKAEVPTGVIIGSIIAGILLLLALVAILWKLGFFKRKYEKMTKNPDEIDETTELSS
# Chain of α2b1/Collagen I (P05556 21-798): as the sequence (P05556 21-798) above
smiles,measurement,setting,value
"O=C(OCCOCCOCCOC(=O)N(Cc1cccs1)Cc1cccs1)N(Cc1cccs1)Cc1cccs1 [Compound 1, 3-oxo-1-(2-thienyl)-2-(2-thienylmethyl)-4,7,10-trioxa-2-azadodecan-12-yl bis(2-thienylmethyl)carbamate]",Integrin Selectivity EC50 α2b1/Collagen I,α2b1/Collagen I,Not Active
same,Integrin Selectivity EC50 α1b1/Collagen IV,α1b1/Collagen IV,Not Active
same,"cell migration, VCAM-1",VCAM-1,migration enhancement
same,"bound cells, adhesion to ICAM-1",LFA-1/ICAM-1,highest bound cells
same,CD3+ and CD4+ double positive cells in tumor,"[1]; Study 3, day 19, compared to vehicle control",decreased trend
same,CD3+ and CD8+ double positive T-cells in tumor,"[1]; Study 3, day 19, compared to vehicle control, opposite to the decreased CD3+ CD4+ trend",trend was opposite
same,ratio of CD8+/CD4+ T-cells in tumors,"[1]; single agent, in response to treatment",progressive increase
same,exposure up to which no clinical symptoms,[2],~50 times therapeutic exposure
same,exposure with no adverse clinical symptoms,[2],> 50 times therapeutic exposure
same,EC50,α5β1/Fibronectin,7.7 ± 2.3 µM
